ChEMBL document CHEMBL4808169, “Discovery of Potent and Fast-Acting Antimalarial Bis-1,2,4-triazines” (J Med Chem, 2021)

Experiments:
[1] = Drug metabolism in human liver microsomes assessed as oxygenated metabolite N-methyl-2-(3'-propoxy-5,5'-bi(1,2,4-triazin)-3-yloxy)ethanamine oxide formation by LC-MS/MS(CID) analysis; format: ADME, Microsome
[2] = Drug metabolism in rat liver microsomes assessed as 3'-propoxy-5,5'-bi(1,2,4-triazin)-3-ol formation by LC-MS/MS(CID) analysis; format: ADME, Microsome
Plasmodium falciparum = assay: Antiplasmodial activity against Plasmodium falciparum NF54 by 3H-incorporation growth inhibition assay; format: functional, organism-based
[3] = Toxicity in Swiss mouse assessed as loss of mobility at 32 mg/kg/day administered for 4 days; format: organism-based; conditions: in vivo, 96 h, time 4 day
[4] = Drug metabolism in human hepatocytes assessed as glucuronides/sulfates metabolite formation by LC-MS/MS(CID) analysis; format: ADME, cell-based, Hepatocyte

Compound: CCCOc1nncc(-c2cnnc(OCCN(C)C)n2)n1
- Drug metabolism [1]: Metabolite_Detected
- Drug metabolism [2]: Metabolite_Notdetected
- IC50 (Plasmodium falciparum): 0.021 µM
- Activity [3]: Non-Toxic
- Drug metabolism [4]: Metabolite_Notdetected
